The conditions of data set [1]: 101 kPa, Liquid.
Data set [2] can be described thus: xn = mol fraction of the nth substance listed. The following applies: 101 kPa, Liquid.

Molecules are shown by their SMILES. Numbers after ± are expanded uncertainties.

As for `CC(C)CO` [2-methyl-1-propanol], the mass density worked out at 801.68 ± 0.98 kg/m3 in data set [1] (293.15 K); 797.8 ± 1 kg/m3 in data set [1] (298.15 K); 794.16 ± 1.1 kg/m3 in data set [1] (303.15 K); 790.06 ± 1.1 kg/m3 in data set [1] (308.15 K); 786.7 ± 1.1 kg/m3 in data set [1] (313.15 K). Further, the viscosity in data set [1] (293.15 K) is 4.037 ± 0.71 mPa·s; in data set [1] (298.15 K) it was 3.33 ± 0.59 mPa·s; in data set [1] (303.15 K), 2.875 ± 0.52 mPa·s; in data set [1] (308.15 K), 2.421 ± 0.44 mPa·s; in data set [1] (313.15 K) it was 1.967 ± 0.36 mPa·s.
Consider `CC(C)CO` [2-methyl-1-propanol] + CCC(C)=O, for which the mass density is on record as 801.68 ± 0.98 kg/m3 in data set [2] (293.15 K, x2 = 0); 797.8 ± 1 kg/m3 in data set [2] (298.15 K, x2 = 0); 794.16 ± 1.1 kg/m3 in data set [2] (303.15 K, x2 = 0); 790.06 ± 1.1 kg/m3 in data set [2] (308.15 K, x2 = 0); 786.7 ± 1.1 kg/m3 in data set [2] (313.15 K, x2 = 0). For the same compound, the viscosity in data set [2] (293.15 K, x2 = 0) was determined as 4.037 ± 0.71 mPa·s; in data set [2] (298.15 K, x2 = 0) it was 3.33 ± 0.59 mPa·s; in data set [2] (303.15 K, x2 = 0), 2.875 ± 0.52 mPa·s; in data set [2] (308.15 K, x2 = 0), 2.421 ± 0.44 mPa·s; in data set [2] (313.15 K, x2 = 0) it was 1.967 ± 0.36 mPa·s.
For the compound `CCC(C)(C)O` [2-methylbutan-2-ol], the mass density was 809.61 ± 1.1 kg/m3 in data set [1] (293.15 K); 805.01 ± 1.1 kg/m3 in data set [1] (298.15 K); 800.41 ± 1.1 kg/m3 in data set [1] (303.15 K); 795.81 ± 1.1 kg/m3 in data set [1] (308.15 K); 791.21 ± 1.2 kg/m3 in data set [1] (313.15 K). Besides, the viscosity is listed as 5.108 ± 0.88 mPa·s in data set [1] (293.15 K); 4.474 ± 0.78 mPa·s in data set [1] (298.15 K); 3.909 ± 0.69 mPa·s in data set [1] (303.15 K); 3.387 ± 0.6 mPa·s in data set [1] (308.15 K); 2.909 ± 0.52 mPa·s in data set [1] (313.15 K).
On to `CCC(C)O` (centres undefined) [butan-2-ol], for which the mass density is on record as 806.48 ± 1 kg/m3 in data set [1] (293.15 K); 802.35 ± 1 kg/m3 in data set [1] (298.15 K); 798.96 ± 1.1 kg/m3 in data set [1] (303.15 K); 794.18 ± 1.1 kg/m3 in data set [1] (308.15 K); 790.07 ± 1.1 kg/m3 in data set [1] (313.15 K). For the same compound, the viscosity in data set [1] (293.15 K) is 3.632 ± 0.64 mPa·s; in data set [1] (298.15 K) it was 2.998 ± 0.54 mPa·s; in data set [1] (303.15 K), 2.498 ± 0.45 mPa·s; in data set [1] (308.15 K) it was 2.054 ± 0.38 mPa·s; in data set [1] (313.15 K), 1.799 ± 0.33 mPa·s.
For `CCC(C)O` (centres undefined) [butan-2-ol] + CCC(C)=O, the mass density worked out at 806.48 ± 1 kg/m3 in data set [2] (293.15 K, x2 = 0); 802.35 ± 1 kg/m3 in data set [2] (298.15 K, x2 = 0); 798.96 ± 1.1 kg/m3 in data set [2] (303.15 K, x2 = 0); 794.18 ± 1.1 kg/m3 in data set [2] (308.15 K, x2 = 0); 790.07 ± 1.1 kg/m3 in data set [2] (313.15 K, x2 = 0). The viscosity was 3.632 ± 0.64 mPa·s in data set [2] (293.15 K, x2 = 0); 2.998 ± 0.54 mPa·s in data set [2] (298.15 K, x2 = 0); 2.498 ± 0.45 mPa·s in data set [2] (303.15 K, x2 = 0); 2.054 ± 0.38 mPa·s in data set [2] (308.15 K, x2 = 0); 1.799 ± 0.33 mPa·s in data set [2] (313.15 K, x2 = 0).
Turning to `CCC(C)=O` [butanone], the mass density came to 804.92 ± 1.1 kg/m3 in data set [1] (293.15 K); 799.7 ± 1.1 kg/m3 in data set [1] (298.15 K); 794.81 ± 1.1 kg/m3 in data set [1] (303.15 K); 789.78 ± 1.2 kg/m3 in data set [1] (308.15 K); 784.32 ± 1.2 kg/m3 in data set [1] (313.15 K). Besides, the viscosity was 0.2828 ± 0.074 mPa·s in data set [1] (298.15 K), 0.2666 ± 0.071 mPa·s in data set [1] (303.15 K), 0.2601 ± 0.07 mPa·s in data set [1] (308.15 K) and 0.2545 ± 0.069 mPa·s in data set [1] (313.15 K).
Regarding `CCC(C)=O` [butanone] + CCC(C)(C)O, the mass density is reported as 804.92 ± 1.1 kg/m3 in data set [2] (293.15 K, x1 = 1); 799.7 ± 1.1 kg/m3 in data set [2] (298.15 K, x1 = 1); 794.81 ± 1.1 kg/m3 in data set [2] (303.15 K, x1 = 1); 789.78 ± 1.2 kg/m3 in data set [2] (308.15 K, x1 = 1); 784.32 ± 1.2 kg/m3 in data set [2] (313.15 K, x1 = 1). The viscosity worked out at 0.3956 ± 0.093 mPa·s in data set [2] (293.15 K, x1 = 1); 0.2828 ± 0.074 mPa·s in data set [2] (298.15 K, x1 = 1); 0.2666 ± 0.071 mPa·s in data set [2] (303.15 K, x1 = 1); 0.2601 ± 0.07 mPa·s in data set [2] (308.15 K, x1 = 1); 0.2545 ± 0.069 mPa·s in data set [2] (313.15 K, x1 = 1).
Regarding `CC(C)O` [propan-2-ol], the mass density in data set [1] (293.15 K) was 785.45 ± 0.99 kg/m3; in data set [1] (298.15 K), 781.26 ± 0.98 kg/m3; in data set [1] (303.15 K), 777.97 ± 1.1 kg/m3; in data set [1] (308.15 K), 772.59 ± 1.1 kg/m3; in data set [1] (313.15 K), 768.32 ± 1.1 kg/m3. Moreover, the viscosity in data set [1] (293.15 K) is given as 2.226 ± 0.41 mPa·s; in data set [1] (298.15 K), 1.91 ± 0.35 mPa·s; in data set [1] (303.15 K), 1.737 ± 0.32 mPa·s; in data set [1] (308.15 K), 1.524 ± 0.29 mPa·s; in data set [1] (313.15 K), 1.347 ± 0.26 mPa·s.
Take `CC(C)O` [propan-2-ol] + CCC(C)=O: the mass density in data set [2] (293.15 K, x2 = 0) amounted to 785.45 ± 0.99 kg/m3; in data set [2] (298.15 K, x2 = 0), 781.26 ± 0.98 kg/m3; in data set [2] (303.15 K, x2 = 0) it was 777.97 ± 1.1 kg/m3; in data set [2] (308.15 K, x2 = 0), 772.59 ± 1.1 kg/m3; in data set [2] (313.15 K, x2 = 0), 768.32 ± 1.1 kg/m3. Further, the viscosity in data set [2] (293.15 K, x2 = 0) was 2.226 ± 0.41 mPa·s; in data set [2] (298.15 K, x2 = 0), 1.91 ± 0.35 mPa·s; in data set [2] (303.15 K, x2 = 0), 1.737 ± 0.32 mPa·s; in data set [2] (308.15 K, x2 = 0), 1.524 ± 0.29 mPa·s; in data set [2] (313.15 K, x2 = 0), 1.347 ± 0.26 mPa·s.

For orientation: mass density means the mass of a sample divided by its volume. By viscosity is commonly meant the resistance of a fluid to flow.

The values are drawn from the NIST ThermoML archive (doi:10.1021/je800571y).
